# Non-standard residues stand in square brackets, D forms with d. No end group written: not given here. Dap = NC[C@H](N)C(=O)O
# What was measured:
# [1] = tested on: MCF-7 breast cancer cells; assay: Cell viability assay for MCF-7, CellTiter Glo 2.0; type: cell-based; details: MCF-7 cells, 48 h; positive control compared with MP23
# HaloTag protein in cells = assay: Time-resolved CAPA; type: cell-based; details: 5μM MP1 and 1.62μM JQ1; reproduced in two independent experiments
# [2] = tested on: Cells that express the HaloTag protein; details: CAPA; ratio of CP50 to that of JQ-1-Ct
# HEK293 cells = assay: Cell viability, CellTiter Glo 2.0, HEK293; type: cell-based; details: 100 μM, 12 hours, CellTiter Glo 2.0, three independent experiments
Compound,"potency relative to MP23, MCF-7 viability [1]","kinetics of HaloTag protein alkylation, time-resolved CAPA (HaloTag protein in cells)",fold higher (poorer) CP50 than JQ-1-Ct [2] [fold],effect on the viability of HEK293 cells (HEK293 cells)
CC(C)[C@@H](CS(=O)(=O)C(C)C)N1C(=O)[C@@](C)(CC(=O)O)C[C@H](c2cccc(Cl)c2)[C@H]1c1ccc(Cl)cc1 [Navtemadlin],about ten-fold more potent,–,–,–
[Dap]AWFK-NH2 (also: sidechain bridge or staple (positions not given here)) [MP1-Ct],–,relatively rapid,3.4,no effect

# From article PMC12632398 (bioRxiv, 2025)
